Data reported in ChEMBL document CHEMBL5375946, “Discovery of KB-0742, a Potent, Selective, Orally Bioavailable Small Molecule Inhibitor of CDK9 for MYC-Dependent Cancers” (J Med Chem, 2023).

Tests used:
in vitro [1] = conditions: dog, liver microsomes
in vitro [2] = conditions: human, plasma
in vitro [3] = conditions: dog, plasma
in vitro [4] = conditions: mouse, plasma
in vitro [5] = conditions: rat, plasma

Q: Which remaining at 3 h (in vitro [1]) does the source give for `CCC(CC)c1cc(N[C@H]2CC[C@H](N)C2)n2nccc2n1` [ISTISOCICLIB] here?
A: Its remaining at 3 h is 68.8%.

Q: What about the fraction unbound at 10 µM (in vitro [2]) of the same molecule?
A: Its fraction unbound at 10 µM is 0.62.

Q: What about the fraction unbound at 10 µM (in vitro [3]) of the same molecule?
A: Its fraction unbound at 10 µM is 0.28.

Q: What about the fraction unbound at 10 µM (in vitro [4]) of the same molecule?
A: Its fraction unbound at 10 µM is 0.52.

Q: And the fraction unbound at 10 µM (in vitro [5])?
A: Its fraction unbound at 10 µM is 0.59.
